What was measured:
C9orf72−/− mice = assay: ALS-like phenotype in aged C9orf72−/− mice given weekly i.p. BMAA (body weight, motor scores, rotarod, open field, catwalk); type: in vivo, mouse; details: 32-week old C9orf72−/− mice, BMAA 500 mg/kg weekly i.p. for six weeks; FIGS. 6A-6E
Protocol: In another experiment, aged (i.e., 32-week old) wild type and C9orf72^−/− mice were administered weekly i.p. injections of BMAA (500 mg/kg) or PBS (control) for six weeks. Body weight measurements were recorded each week up to 38 weeks starting at day zero (i.e., 32 weeks). Analysis of motor impairment via rotarod, open field locomotor, and catwalk testing (as described above) were also recorded at the start of the experiment (week 0, […]) and every other week up to 38 weeks. Table 6 sets forth the scoring methodology related to motor impairment, tremor and rigidity of animals during testing.

C9orf72−/− motor neurons = assay: Oxidative stress (ROS, CellROX Green) of cultured C9orf72−/− motor neurons exposed to BMAA; type: cell-based, mouse; details: 100 mM BMAA, measured at days 1 and 7, FIG. 7
Protocol: In another experiment, motor neurons from C9orfF72^−/− mice were cultured as described above (see also FIG. 7) and treated with antisense oligonucleotides that selectively target sense strand repeat-containing RNAs and reduce sense-oriented RNA foci without affecting overall C9orf72 expression. Treatment was followed by addition of 100 mM BMAA. Survival and oxidative stress of cultured motor neurons were measured at days 1 and 7. Briefly, oxidative stress of plated embryonic stem cell-derived motor neurons (described above) was assessed by measuring the Reactive Oxygen Species (ROS) levels in the cells using Life Technologies' CellROX Oxidative Stress Green reagent at a final concentration of 5 μM and incubating for 30 minutes at 37° C. After incubation, cells were washed three times with PBS and fluorescence was measured using a standard microplate fluorometry.

[1] = test system: cultured wild type motor neurons; assay: Survival of cultured embryonic stem cell-derived wild type motor neurons treated with BMAA (cell counts, trypan blue); type: cell-based, mouse; details: wild type motor neurons in ESMN with BMAA at 0.1-100 μM; FIG. 4
Protocol: Briefly, mouse embryonic stem cells are cultured and differentiated into motor neurons, during an eight-day period. The first day, previously frozen mouse embryonic stem cells are thawed and added to a 15 mL falcon tube with five mL of embryonic stem cell medium (ES medium: DMEM with 15% FBS, 1% pen/strep., 1% glutamine, 1% non-essential amino acids, 1% nucleosides, 0.1% β-mercaptoethanol, 1% sodium-pyruvate, and LIF at 10000 unit/mL), The tube is then centrifuged for five minutes at 800 rpm. The supernatant is aspirated and the cells suspended in 10 mL of ES medium. The cells are then plated on a T75 flask that is coated with 10 mL of 0.1% gelatin and incubated for 30 minutes at 37° C. to facilitate attachment to the flask bottom. The cells are then incubated overnight. The following day the medium exchanged with fresh medium for survival.
The following day medium is aspirated from the flask. The flask is washed with 10 mL of PBS, and then 5 mL of trypsin is added to detach the cells from the bottom of the flask. The cells are incubated for five minutes at 37° C. Detachment is confirmed by checking the flask under a microscope. […]
After three days embryoid bodies (EB) that form are dissociated. […] The cells are then counted using a Countess automatic cell counter (Life Technologies) and 0.5 to 1 million cells are plated with 2 mL ESMN medium per well in each six well plate. […]

wild type mice = assay: ALS-like phenotype in wild type mice given weekly i.p. BMAA (body weight, rotarod, open field, catwalk); type: in vivo, mouse; details: BMAA 500 mg/kg weekly i.p. for six weeks, FIGS. 5A-5D
Protocol: In another experiment, wild type mice were administered weekly i.p. injections of BMAA (500 mg/kg) or PBS (control) for six weeks starting at week 1 (FIG. 5A, top). Body weight measurements were recorded each week up to 6 weeks, week 14 and week 18. Analysis of motor impairment via rotarod, open field locomotor, and catwalk testing (as described above) were recorded at the start of the experiment (week 0, 10-weeks old), every other week up to 6 weeks, week 14 and week 18.

CNC[C@H](N)C(=O)O [BMAA, β-Methylamino-L-alanine]
effect on ALS-like motor phenotype (C9orf72−/− mice): mildly exacerbates | effect on increased inactivity and gait abnormalities (C9orf72−/− mice): does not affect | oxidative stress (Reactive Oxygen Species levels) (C9orf72−/− motor neurons): increased oxidative stress | survival of cultured motor neurons (percentage of live neurons to control) [1]: kills cultured wild type motor neurons in a dose-dependent manner | induction of ALS-like phenotype (wild type mice): did not induce an ALS-like phenotype
